In patent US10377717B2, “Farnesoid X receptor agonists and uses thereof” (Metacrine, Inc., priority 2015, dated 2019):

Molecular target: hFXR (Homo sapiens (Human), UniProt Q96RI1)
Assay: In Vitro FXR Assay (TK), luciferase reporter in transfected CV-1 cells
Format: cell-based
Conditions: TK-ECRE-luc reporter, hFXR/hRXR, 18 hrs, maximum efficacy <25% of Fexaramine control classified as '+'
Procedure: CV-1 cells were seeded at a density of 2,000,000 cells in a T175 flask with DMEM+10% charcoal double-stripped FBS and incubated at 37° C. in 5% CO2 for 18 h (O/N).
After 18 h of incubation, the medium in the T175 flask was changed with fresh DMEM+10% charcoal super-stripped serum. In a polypropylene tube, 2500 μL OptiMEM (Life Technologies, Cat #31985-062) was combined with expression plasmids for hFXR, hRXR, TK-ECRE-luc and pCMX-YFP. The tube was then briefly vortexed and incubated at room temperature for 5 minutes. Transfection reagent (X-tremeGENE HP from Roche, Cat #06 366 236 001) was added to the OptiMEM/plasmid mixture vortexed and incubated at room temperature for 20 minutes. Following incubation, the transfection reagent/DNA mixture complex was added to cells in the T175 flask and the cells were incubated at 37° C. in 5% CO2 for 18 h (O/N).
Compounds were serially diluted in DMSO and added to transfected CV-1 cells. The cells were then incubated for 18 hrs. The next day cells were lysed and examined for luminescence.

Chain of hFXR (Q96RI1 whole entry): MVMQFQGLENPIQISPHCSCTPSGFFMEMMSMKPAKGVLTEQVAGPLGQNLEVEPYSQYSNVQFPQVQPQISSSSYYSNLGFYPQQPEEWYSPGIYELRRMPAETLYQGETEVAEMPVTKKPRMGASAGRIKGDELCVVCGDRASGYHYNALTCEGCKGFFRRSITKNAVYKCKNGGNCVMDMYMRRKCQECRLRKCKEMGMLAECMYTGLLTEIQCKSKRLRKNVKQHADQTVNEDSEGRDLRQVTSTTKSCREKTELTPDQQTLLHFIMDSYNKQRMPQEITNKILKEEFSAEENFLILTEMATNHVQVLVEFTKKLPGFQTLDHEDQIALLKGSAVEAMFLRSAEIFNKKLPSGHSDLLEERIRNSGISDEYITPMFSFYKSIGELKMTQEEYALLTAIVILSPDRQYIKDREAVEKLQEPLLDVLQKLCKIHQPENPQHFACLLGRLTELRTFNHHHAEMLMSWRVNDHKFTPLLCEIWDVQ
Chain of hFXR (P19793 whole entry partner): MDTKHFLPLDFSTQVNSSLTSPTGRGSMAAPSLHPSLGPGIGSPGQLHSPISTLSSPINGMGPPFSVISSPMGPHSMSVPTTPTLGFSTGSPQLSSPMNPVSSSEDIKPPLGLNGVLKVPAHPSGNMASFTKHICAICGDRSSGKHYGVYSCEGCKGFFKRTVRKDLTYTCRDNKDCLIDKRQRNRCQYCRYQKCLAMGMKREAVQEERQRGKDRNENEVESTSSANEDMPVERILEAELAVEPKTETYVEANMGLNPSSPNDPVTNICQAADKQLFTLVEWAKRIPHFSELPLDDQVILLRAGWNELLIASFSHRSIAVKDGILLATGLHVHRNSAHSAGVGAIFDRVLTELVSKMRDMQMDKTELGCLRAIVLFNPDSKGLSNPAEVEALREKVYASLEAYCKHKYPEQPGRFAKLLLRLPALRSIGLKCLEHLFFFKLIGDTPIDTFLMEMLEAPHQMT

Row | EC50 | Structure (SMILES)
1 | ≥ 10000 nM | COC(=O)c1ccc2c(N(Cc3ccc(-c4ccc(OC)c(C)c4)cc3)C(=O)CCCOCc3ccccc3)nccc2c1 [Compound 78, Methyl 1-(4-(benzyloxy)-N-((4′-methoxy-3′-methyl-[1,1′-biphenyl]-4-yl)methyl)butanamido)isoquinoline-6-carboxylate]
2 | ≤ 1000 nM | COC(=O)c1ccc2c(N(Cc3ccc(-c4ccc5c(ccn5C)c4)cc3)C(=O)CC(C)(C)C)nccc2c1 [Compound 44, Methyl 1-(3,3-dimethyl-N-(4-(1-methyl-1H-indol-5-yl)benzyl)butanamido)isoquinoline-6-carboxylate]
3 | 1000 to 10000 nM | COC(=O)c1ccc2c(N(Cc3ccc(-c4ccc(N(C)C)cc4)cc3)C(=O)C(C)(C)C)nccc2c1 [Compound 17, Methyl 1-(N-((4-(dimethylamino)-[1,1′-biphenyl]-4-yl)methyl)pivalamido)isoquinoline-6-carboxylate]
4 | 1000 to 10000 nM | COc1ccc([C@H]2CC[C@H](CN(C(=O)CC(C)(C)C)c3nccc4cc(C(=O)O)ccc34)CC2)cc1C [Compound 100, 1-(N-((trans-4-(4-Methoxy-3-methylphenyl)cyclohexyl)methyl)-3,3-dimethylbutanamido)isoquinoline-6-carboxylic Acid]
5 | 1000 to 10000 nM | COC(=O)c1ccc2c(N(Cc3ccc(-c4ccc(OC)c(C)c4)cc3)C(=O)CC3CCCCC3)nccc2c1 [Compound 74, Methyl 1-(2-cyclohexyl-N-((4′-methoxy-3′-methyl-[1,1′-biphenyl]-4-yl)methyl)acetamido)isoquinoline-6-carboxylate]
6 | 1000 to 10000 nM | COc1ccc(-c2ccc(CN(C(=O)CC(C)(C)C)c3nccc4cc(/C=C/C(=O)O)ccc34)cc2)cc1C [Compound 103, (E)-3-(1-(N-((4′-Methoxy-3′-methyl-[1,1′-biphenyl]-4-yl)methyl)-3,3-dimethylbutanamido)isoquinolin-6-yl)acrylic Acid]
7 | ≤ 1000 nM | CCOC(=O)c1ccc2c(N(Cc3ccc(-c4ccc(OC)c(C)c4)cc3)C(=O)C3CCCCC3)nccc2c1 [Compound 21, Ethyl 1-(N-((4′-methoxy-3′-methyl-[1,1′-biphenyl]-4-yl)methyl)cyclohexanecarboxamido) isoquinoline-6-carboxylate]
8 | ≤ 1000 nM | COC(=O)c1ccc2c(N(Cc3ccc(-c4cnc5c(ccn5C)c4)cc3)C(=O)CC(C)(C)C)nccc2c1 [Compound 49, Methyl 1-(3,3-dimethyl-N-(4-(1-methyl-1H-pyrrolo[2,3-b]pyridin-5-yl)benzyl)butanamido)isoquinoline-6-carboxylate]
9 | 1000 to 10000 nM | COC(=O)c1ccc2c(N(Cc3ccc(-c4ccc(OC(F)F)cc4)cc3)C(=O)CC(C)(C)C)nccc2c1 [Compound 57, Methyl 1-(N-((4′-(difluoromethoxy)-[1,1′-biphenyl]-4-yl)methyl)-3,3-dirnethylbutanamido)isoquinoline-6-carboxylate]
10 | ≤ 1000 nM | COC(=O)c1ccc2c(N(Cc3ccc(-c4ccc5c(c4)OC(F)(F)O5)cc3)C(=O)CC(C)(C)C)nccc2c1 [Compound 34, Methyl 1-(N-(4-(2,2-difluorobenzo[d][1,3]dioxol-5-yl)benzyl)-3,3-dimethylbutanamido)isoquinoline-6-carboxylate]
11 | 1000 to 10000 nM | COC(=O)/C=C/c1ccnc(N(Cc2ccc(-c3ccc(N(C)C)nc3)cc2)C(=O)C2CCCCC2)c1 [Compound 5, (E)-Methyl 3-(2-(N-(4-(6-(dimethylamino)pyridin-3-yl)benzyl)cyclohexane-carboxamido)pyridin-4-yl)acrylate]

The remaining lines, values behind:

Row | Structure (SMILES) | EC50
12 | COC(=O)c1ccc2c(N(Cc3ccc(-c4ccc(C#N)c(Cl)c4)cc3)C(=O)CC(C)(C)C)nccc2c1 [Compound 31, Methyl 1-(N-((3′-chloro-4′-cyano-[1,1′-biphenyl]-4-yl)methyl)-3,3-dimethylbutanamido)isoquinoline-6-carboxylate] | ≤ 1000 nM
13 | COC(=O)c1ccc2c(N(Cc3ccc(-c4ccc(OC)cc4)cc3)C(=O)CC(C)(C)C)nccc2c1 [Compound 45, Methyl 1-(N′-((4′-methoxy-[1,1′-biphenyl]-4-yl)methyl)-3,3-dimethylbutanamido)isoquinoline-6-carboxylate] | ≤ 1000 nM
14 | COC(=O)c1ccc2c(N(Cc3ccc(-c4ccc5c(c4)CCN5C(=O)OC(C)(C)C)cc3)C(=O)CC(C)(C)C)nccc2c1 [Compound 51, Methyl 1-(N-(4-(1-(tert-butoxycarbonyl)indolin-5-yl)benzyl)-3,3-dimethylbutanamido)isoquinoline-6-carboxylate] | ≥ 10000 nM
15 | COC(=O)c1cc2cccc(N(Cc3ccc(-c4ccc(N(C)C)cc4)cc3)C(=O)C3CCCCC3)c2s1 [Compound 12, Methyl 7-(N-((4′-(dimethylamino)-[1,1′-biphenyl]-4-yl)methyl)cyclohexanecarboxamido) benzo[b]thiophene-2-carboxylate] | 1000 to 10000 nM
16 | CCc1ccc(-c2ccc(CN(C(=O)CC(C)(C)C)c3nccc4cc(C(=O)OC)ccc34)cc2)cc1 [Compound 53, Methyl 1-(N-((4′-ethyl-[1,1′-biphenyl]-4-yl)methyl)-3,3-dimethylbutanamido)isoquinoline-6-carboxylate] | ≤ 1000 nM
17 | COCc1ccc(-c2ccc(CN(C(=O)CC(C)(C)C)c3nccc4cc(C(=O)OC)ccc34)cc2)cc1 [Compound 58, Methyl 1-(N-((4′-(methoxymethyl)-[1,1′-biphenyl]-4-yl)methyl)-3,3-dimethylbutanamido)isoquinoline-6-carboxylate] | ≤ 1000 nM
18 | COc1ccc(-c2ccc(CN(C(=O)CC(C)(C)C)c3nccc4cc(C(=O)OC(C)C)ccc34)cc2)cc1C [Compound 69, Isopropyl 1-(N-((4′-methoxy-3′-methyl-[1,1′-biphenyl]-4-yl)methyl)-3,3-dimethylbutanamido)isoquinoline-6-carboxylate] | ≤ 1000 nM
19 | COC(=O)c1ccc2c(N(Cc3ccc(-c4ccc(CO)cc4)cc3)C(=O)CC(C)(C)C)nccc2c1 [Compound 43, Methyl 1-(N-((4′-(hydroxymethyl)-[1,1′-biphenyl]-4-yl)methyl)-3,3-dimethylbutanamido)isoquinoline-6-carboxylate] | 1000 to 10000 nM
20 | COc1ccc(-c2ccc(CN(C(=O)CC(C)(C)C)c3nccc4cc(C(=O)O)ccc34)cc2)cc1C [Compound 101, 1-(N-((4′-methoxy-3′-methyl-[1,1′-biphenyl]-4-yl)methyl)-3,3-dimethylbutanamido) isoquinoline-6-carboxylic acid] | ≥ 10000 nM
21 | CCOc1ccc(-c2ccc(CN(C(=O)CC(C)(C)C)c3nccc4cc(C(=O)OC)ccc34)cc2)cc1 [Compound 52, Methyl 1-(N-((4′-ethoxy-[1,1′-biphenyl]-4-yl)methyl)-3,3-dimethylbutanamido)isoquinoline-6-carboxylate] | 1000 to 10000 nM
22 | COC(=O)c1ccc2c(N(Cc3ccc(-c4ccc(OC)c(C)c4)cc3)C(=O)Cc3ccccc3)nccc2c1 [Compound 75, Methyl 1-(N-((4′-methoxy-3′-methyl-[1,1′-biphenyl]-4-yl)methyl)-2-phenylacetamido)isoquinoline-6-carboxylate] | ≥ 10000 nM
23 | COC(=O)c1ccc2c(N(Cc3ccc(-c4ccc(OC)c(C)c4)cc3)C(=O)C(C)C)nccc2c1 [Compound 28, Methyl 1-(N-((4′-methoxy-3′-methyl-[1,1′-biphenyl]-4-yl)methyl)isobutyramido) isoquinoline-6-carboxylate] | ≤ 1000 nM
24 | COC(=O)c1ccc2c(N(Cc3ccc(-c4ccc(OC)c(C)c4)cc3)C(=O)CC3CC3)nccc2c1 [Compound 80, Methyl 1-(2-cyclopropyl-N-((4′-methoxy-3′-methyl-[1,1′-biphenyl]-4-yl)methyl)acetamido)isoquinoline-6-carboxylate] | ≤ 1000 nM
25 | COC(=O)c1ccc2c(N(Cc3ccc(-c4ccc5c(c4)OCC5)cc3)C(=O)CC(C)(C)C)nccc2c1 [Compound 47, Methyl 1-(N-(4-(2,3-dihydrobenzofuran-6-yl)benzyl)-3,3-dimethylbutanamido)isoquinoline-6-carboxylate] | ≤ 1000 nM
26 | COC(=O)c1ccc2c(N(C[C@H]3CC[C@H](c4ccc(OC)cc4)CC3)C(=O)CC(C)(C)C)nccc2c1 [Compound 94, Methyl 1-(N-((trans-4-(4-methoxyphenyl)cyclohexyl)methyl)-3,3-dimethylbutanamido)isoquinoline-6-carboxylate] | ≤ 1000 nM
27 | CCC(C)(C)CC(=O)N(C[C@H]1CC[C@H](c2ccc(OC)c(C)c2)CC1)c1nccc2cc(C(=O)OC(C)C)ccc12 [Compound 88, Isopropyl 1-(N-((trans-4-(4-methoxy-3-methylphenyl)cyclohexyl)methyl)-3,3-dimethylpentanamido)isoquinoline-6-carboxylate] | ≤ 1000 nM
28 | COC(=O)c1ccc2c(N(C[C@H]3CC[C@H](c4ccccc4C)CC3)C(=O)CC(C)(C)C)nccc2c1 [Compound 89, Methyl 1-(3,3-dimethyl-N-((trans-4-(o-tolyl)cyclohexyl)methyl)butanamido)isoquinoline-6-carboxylate] | 1000 to 10000 nM
29 | COC(=O)c1ccc2c(N(Cc3ccc(-c4ccc(CCO)cc4)cc3)C(=O)CC(C)(C)C)nccc2c1 [Compound 61, Methyl 1-(N-((4′-(2-hydroxyethyl)-[1,1′-biphenyl]-4-yl)methyl)-3,3-dimethylbutanamido)isoquinoline-6-carboxylate] | ≤ 1000 nM
30 | COC(=O)c1ccc2c(N(Cc3ccc(-c4ccc(OC)c(C#N)c4)cc3)C(=O)CC(C)(C)C)nccc2c1 [Compound 24, Methyl 1-(N-((3′-cyano-4′-methoxy-[1,1′-biphenyl]-4-yl)methyl)-3,3-dimethylbutanamido)isoquinoline-6-carboxylate] | ≤ 1000 nM
